From patent publication EP1004870A1, “Liquid barriers for assays” (Aurora Biosciences Corporation, priority 1998, dated 2000)
Values joined by “and” are separate entries in the source; they are usually repeats but may differ in a detail not shown here. Identical values can stand only once. Like-named read-outs stand apart in the source and are kept apart here.

Target: T1, M1 receptor (Homo sapiens, UniProt P11229)
T1 sequence (P11229 1-460): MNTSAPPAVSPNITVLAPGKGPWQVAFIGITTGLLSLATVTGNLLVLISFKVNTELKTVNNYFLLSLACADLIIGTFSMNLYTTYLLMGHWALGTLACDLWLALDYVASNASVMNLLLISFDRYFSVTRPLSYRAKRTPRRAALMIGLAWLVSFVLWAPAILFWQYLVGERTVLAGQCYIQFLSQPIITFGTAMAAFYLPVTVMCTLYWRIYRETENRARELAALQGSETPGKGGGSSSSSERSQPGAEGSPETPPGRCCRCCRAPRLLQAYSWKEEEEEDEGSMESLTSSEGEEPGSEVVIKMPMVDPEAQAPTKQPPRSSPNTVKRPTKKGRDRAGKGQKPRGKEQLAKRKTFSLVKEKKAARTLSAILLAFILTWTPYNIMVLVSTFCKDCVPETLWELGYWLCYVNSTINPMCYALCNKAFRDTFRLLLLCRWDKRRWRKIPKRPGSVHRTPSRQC
Assay: Antagonist assay: beta-lactamase expression in carbachol-stimulated Jurkat C2 cells (CCF2/AM fluorescence read-out), mechanical vs liquid barrier

[1] = Liquid barrier (silicone oil, Dow Corning Silicone 200 Fluid 5.0 cs), cells stimulated with carbachol, 96-well plate
[2] = Mechanical barrier (polystyrene lid), cells stimulated with carbachol, 96-well plate

Row | Compound | Percent inhibition of beta- lactamase expression in C2 cells in response to the presence of the indicated chemical | Percent inhibition of beta- lactamase expression in C2 cells in response to the presence of the indicated chemical [1] [%] | Percent inhibition of beta- lactamase expression in C2 cells in response to the presence of the indicated chemical [2] [%]
1 | C[N+]12CCC(CC1)C(OC(=O)C(O)(c1ccccc1)c1ccccc1)C2 (stereo not drawn) [Clidinium] | 82% and 91% |  | 
2 | CCN(CC)C(C)CN1c2ccccc2Sc2ccccc21 (stereo not drawn) [Ethopropazine] |  | 43 | 88
3 | C[N+]1(C)CCCC(OC(=O)C(O)(c2ccccc2)c2ccccc2)C1 (stereo not drawn) [Mepenzolate] |  | 90 | 91
4 | CC(C)[N+](C)(CCOC(=O)C1c2ccccc2Oc2ccccc21)C(C)C [Propantheline] |  | 95 | 95
5 | Isopropamine |  | 78 | 91
